Data on three compounds can be found in publication PMC8793051 (ACS Omega, 2022).

One test relates to A549/ATCC. Nature of the test: NCI-60 SRB growth assay. It counts as cell-based, human. The following applies: for TGI: A549/ATCC; for GI50: Homo sapiens, A549. On the technique in general: Sulforhodamine B stains cellular protein and so reports cell mass.
The next test concerns SNB-19. Nature of the test: NCI-60 SRB growth assay. It is filed as cell-based, human. The following applies: for CC50: SNB-19, read-out: LC50.
A further test has as its system NCI-H460. Put plainly: NCI-60 SRB growth assay. It is filed as cell-based, human. The following applies: for GI50 / CC50: Homo sapiens; for GI50: NCI-H460; for CC50: NCI-H460, read-out: LC50; for TGI: NCI–H460.
The subject of another test is TK-10. Put plainly: NCI-60 SRB growth assay. The following applies: for GI50 / CC50: Homo sapiens; for GI50 / TGI: TK-10; for CC50: TK-10, read-out: LC50. It counts as cell-based, human.
A further test relates to SK-OV-3. Nature of the test: NCI-60 SRB growth assay. It counts as cell-based, human. The following applies: for GI50 / CC50: Homo sapiens; for GI50 / TGI: SK-OV-3; for CC50: SK-OV-3, read-out: LC50.
For another test, the system named is SF-268. Put plainly: NCI-60 SRB growth assay. It counts as cell-based, human. To be noted: for GI50 / CC50: Homo sapiens; for GI50 / TGI: SF-268; for CC50: SF-268, read-out: LC50.
Another test has as its system EKVX. Nature of the test: NCI-60 SRB growth assay. It is filed as cell-based, human. The following applies: for GI50 / CC50: Homo sapiens; for CC50: read-out: LC50.
The subject of another test is OVCAR-8. Put plainly: NCI-60 SRB growth assay. To be noted: for GI50 / TGI: OVCAR-8. It is filed as cell-based, human.
The test system of test [1] is oligo-2: d(CGATGTACATCG)2. Nature of the test: Fluorescence titration. It is filed as binding. The following applies: 20 °C, pH 7.2.
Another test concerns MDA-MB-231 cells. Nature of the test: Cell cycle analysis by flow cytometry. It is filed as cell-based, human. To be noted: at 6 and 12 h; control 1–2%.

As to `CCCN1CCN(c2ccc3[nH]c(-c4ccc5[nH]c(-c6ccc(OCC)c(OCC)c6)nc5c4)nc3c2)CC1` [11a, 2-(2-(3,4-Diethoxyphenyl)-1H-benzo[d]imidazol-5-yl)-5-(4-propylpiperazin-1-yl)-1H-benzo[d]imidazole], the TGI – broadly, the concentration at which net growth stops – in the test on A549/ATCC is 3020 nM; in the test on SNB-19 (SNB-19), 2180 nM; in the test on HL-60(TB), 2700 nM; in the test with NCI-H460 it was 1510 nM; with TK-10, 4900 nM; in the test on SK-OV-3, 10200 nM. In addition, the TGI with SF-268 was 11500 nM; in the test on EKVX, 13300 nM; in the test on OVCAR-8 it was 2160 nM. Moreover, the GI50 (in general, the concentration that inhibits growth by half) stood at 1170 nM with A549/ATCC; 430 nM in the test with NCI-H460; 1220 nM in the test with TK-10; 2100 nM with SK-OV-3; 1900 nM in the test on SF-268; 1730 nM with EKVX. The GI50 in the test on OVCAR-8 (Homo sapiens) was determined as 450 nM. In addition, the CC50 was 5600 nM in the test with SNB-19 (Homo sapiens); 4380 nM in the test on NCI-H460; 2470 nM in the test with TK-10; 9900 nM with SK-OV-3; 68800 nM in the test on SF-268; more than 100000 nM with EKVX. Also, in the test on OVCAR-8 (Homo sapiens, OVCAR-8, read-out: LC50), the CC50 was more than 100000 nM. The “Ka binding affinity with oligo-2” value in [1] is reported as 5 × 10^6 M^1.

With `CCCCN1CCN(c2ccc3[nH]c(-c4ccc5[nH]c(-c6ccc(OCC)c(OCC)c6)nc5c4)nc3c2)CC1` [12a, 5-(4-Butylpiperazin-1-yl)-2-(2-(3,4-diethoxyphenyl)-1H-benzo[d]imidazol-5-yl)-1H-benzo[d]imidazole], the TGI in the test on A549/ATCC came out at 2930 nM; in the test on SNB-19 (SNB-19), 2610 nM; in the test on NCI-H460, 1860 nM; in the test on TK-10, 5170 nM; in the test on SK-OV-3, 3270 nM; with SF-268, 22000 nM. The TGI in the test with EKVX turned out to be 3180 nM; in the test with OVCAR-8, 3060 nM. The 50% growth inhibitory concentration (GI50) in the test on A549/ATCC was 1180 nM; in the test on SNB-19 (Homo sapiens, SNB-19), 1220 nM; in the test with NCI-H460, 530 nM; with TK-10 it was 1660 nM; in the test with SK-OV-3, 1330 nM; with SF-268 it was 2660 nM. The GI50 was found to be 1380 nM in the test with EKVX and 890 nM with OVCAR-8 (Homo sapiens). Also, the CC50 with SNB-19 (Homo sapiens) is 5580 nM; in the test on NCI-H460, 5310 nM; in the test on TK-10, more than 100000 nM; with SK-OV-3, 8010 nM; in the test on SF-268 it was more than 100000 nM. Moreover, in test [1], the “Ka binding affinity with oligo-2” value is 4 × 10^6 M^1.

For the compound `CCCCN1CCN(c2ccc3[nH]c(-c4ccc5[nH]c(-c6ccc(C(F)(F)F)cc6)nc5c4)nc3c2)CC1` [12b, 5-(5-(4-Butylpiperazin-1-yl)-1H-benzo[d]imidazol-2-yl)2(4(trifluoromethyl)phenyl)-1H-benzo[d]imidazole], the concentration for total growth inhibition (TGI) was 1190 nM in the test on A549/ATCC; 2800 nM in the test on HL-60(TB); 500 nM in the test with NCI-H460; 3300 nM in the test with SF-268; 2900 nM in the test with EKVX; 2800 nM in the test with OVCAR-8. For the same compound, the GI50 was 350 nM with A549/ATCC; 230 nM in the test on NCI-H460; 1700 nM in the test with SF-268; 1500 nM in the test on EKVX; 1100 nM in the test with OVCAR-8 (Homo sapiens). The CC50 amounted to 1620 nM with NCI-H460, 6400 nM with SF-268 and 5700 nM in the test with EKVX. Moreover, the “cells in the sub-G1 phase” value in the test on MDA-MB-231 cells is 7.4%. Besides, the “Ka binding affinity with oligo-2” value in test [1] is given as 2 × 10^6 M^1.
